Earlier results in paper PMC12308805, “Ultrahigh-Throughput Virtual Screening Strategies against PPI Targets: A Case Study of STAT Inhibitors” (Journal of Chemical Information and Modeling, 2025).
Square brackets hold non-standard residues; d marks the D form. Peptide text beside a SMILES is read from it. * marks the point of attachment. Phe(4-tetrazol-5-yl) = N[C@@H](Cc1ccc(-c2nnn[nH]2)cc1)C(=O)O; pY = N[C@@H](Cc1ccc(OP(=O)(O)O)cc1)C(=O)O; d(aThr) = C[C@@H](O)[C@@H](N)C(=O)O; βNA = c1ccc2cc(N*)ccc2c1

Test system: STAT3
Conditions: cited from earlier work

With `CC(=O)N[C@@H](Cc1ccc(OP(=O)(O)O)cc1)C(=O)N[C@@H](CC(C)C)C(=O)N1CCC[C@H]1C(=O)N[C@@H](CCC(N)=O)C(=O)N[C@H](C(N)=O)[C@@H](C)O` [CHEMBL382978] (Ac-[pY]LPQT-NH2) as the compound, how does the “Type (known STAT3 active)” value read?
The value was “Active”.

Same assay, conditions: sheet 6QHD_actives_decoys, retrospective screening set for STAT3 SH2 domain (PDB 6QHD); decoys are presumed inactives, not tested; ref DUD-E; cited from earlier work

Which Type does the source give for `COc1ccc(NC(=O)CSc2nnc(NC(=O)c3cc(OC)c(OC)c(OC)c3)s2)cc1OC` [Decoy923] here?
Its Type is “Inactive (Decoy)”.

For `Cc1nn(-c2cc(Cl)c(S(=O)(=O)O)cc2Cl)c(O)c1/N=N/c1cccc(S(=O)(=O)O)c1` [Decoy763], which Type is on record?
The Type was “Inactive (Decoy)”.

With `Nc1ncnc2c1ncn2[C@@H]1O[C@H](CO[P@](=O)(O[C@H](CO)[C@@H](O)[C@H](O)[C@@H](O)C=O)OP(=O)(O)O)[C@@H](O)[C@H]1O` [Decoy946] as the compound, how does the Type read?
Its Type is “Inactive (Decoy)”.

For `COc1ccc(OC)c(S(=O)(=O)Nc2ccc(S(=O)(=O)Nc3nccc(C)n3)cc2)c1` [Decoy835], which Type is on record?
The Type was “Inactive (Decoy)”.

With `CCN(CC)S(=O)(=O)c1ccc(NC(=O)CCCCCCCC(=O)Nc2ccc(S(=O)(=O)N(CC)CC)cc2)cc1` [Decoy744] as the compound, how does the Type read?
The Type was “Inactive (Decoy)”.

With `O=C(NC(CO[C@H]1[C@H](O)[C@H](O)[C@H](O)O[C@@H]1CO)CO[C@H]1[C@H](O)[C@H](O)[C@@H](O)O[C@@H]1CO)c1ccc(C2(C(F)(F)F)N=N2)cc1` (some centres unmarked) [Decoy734] as the compound, how does the Type read?
The Type was “Inactive (Decoy)”.

Which Type does the source give for `O=S1(=O)CC[C@@H](NCOC(COCN[C@H]2CCS(=O)(=O)C2)COCN[C@H]2CCS(=O)(=O)C2)C1` [Decoy819] here?
The Type was “Inactive (Decoy)”.

Which Type does the source give for `CC(C)N(C(=O)c1ccc(C(=O)Nc2cccc(NC(=O)c3ccc(C(=O)N(C(C)C)C(C)C)cc3)n2)cc1)C(C)C` [Decoy874] here?
The Type was “Inactive (Decoy)”.

Same assay, conditions: sheet 6QHD_actives_decoys; known STAT3 actives of the retrospective screening set; ref ChEMBL / literature; cited from earlier work

Which “Type (known STAT3 active)” value does the source give for `CC(=O)N[C@@H](Cc1ccc(-c2nn[nH]n2)cc1)C(=O)N[C@@H](CC(C)C)C(=O)N1CCC[C@H]1C(=O)N[C@@H](CCC(N)=O)C(=O)N[C@H](C(=O)N[C@H](C(=O)O)C(C)C)[C@@H](C)O` [CHEMBL439390] (Ac-[Phe(4-tetrazol-5-yl)]LPQTV-OH) here?
The value was “Active”.

For `CC(C)C[C@H](NC(=O)/C=C/c1ccc(OP(=O)(O)O)cc1)C(=O)N1C[C@H]2C[C@H]2[C@H]1C(=O)N[C@@H](CCC(N)=O)C(C)C` [CHEMBL573930], which “Type (known STAT3 active)” value is on record?
Its value is “Active”.

For `CCCC[C@H](CCC(N)=O)NC(=O)[C@@H]1[C@@H]2C[C@@H]2CN1C(=O)[C@H](CC(C)C)NC(=O)/C=C/c1ccc(OP(=O)(O)O)cc1` [CHEMBL583116], which “Type (known STAT3 active)” value is on record?
Its value is “Active”.

Which “Type (known STAT3 active)” value does the source give for `CC(C)C[C@H](NC(=O)/C=C/c1ccc(OP(=O)(O)O)cc1)C(=O)N1CCC[C@H]1C(=O)NCCOC(N)=O` [CHEMBL576590] here?
Its value is “Active”.

Which “Type (known STAT3 active)” value does the source give for `CC(=O)N[C@@H](Cc1ccc(OP(=O)(O)O)cc1)C(=O)N[C@@H](CC(C)C)C(=O)N1CCC[C@@H]1C(=O)N[C@H](CCC(N)=O)C(=O)N[C@@H](C(=O)N[C@H](C)C(=O)O)[C@@H](C)O` [CHEMBL157727] (Ac-[pY]L[dP][dQ][d(aThr)][dA]-OH) here?
Its value is “Active”.

Same assay, conditions: sheet 6QHD_actives_decoys; retrospective screening set for STAT3 SH2 domain (PDB 6QHD); […]; ref DUD-E; cited from earlier work

For `O=c1c(C[C@@H](O)CN2CCOCC2)c(O)n(C[C@H](O)CN2CCOCC2)c(=O)n1C[C@H](O)CN1CCOCC1` [Decoy567], which Type is on record?
Its Type is “Inactive (Decoy)”.

With `O=c1c(C[C@H](O)CN2CCOCC2)c(O)n(C[C@@H](O)CN2CCOCC2)c(=O)n1C[C@H](O)CN1CCOCC1` [Decoy679] as the compound, how does the Type read?
Its Type is “Inactive (Decoy)”.

With `O=C(CCCN1CCC(O[C@@H]2O[C@H](C(=O)O)[C@@H](O)[C@H](O)[C@H]2O)(c2ccc(Cl)cc2)CC1)c1ccc(F)cc1` [Decoy692] as the compound, how does the Type read?
The Type was “Inactive (Decoy)”.

For `Cc1cc(C(=O)Nc2ccc(S(=O)(=O)Nc3ncccn3)cc2)cc(S(=O)(=O)N(C)C)c1C` [Decoy675], which Type is on record?
The Type was “Inactive (Decoy)”.

For `O=c1c(C[C@@H](O)CN2CCOCC2)c(O)n(C[C@@H](O)CN2CCOCC2)c(=O)n1C[C@H](O)CN1CCOCC1` [Decoy568], which Type is on record?
Its Type is “Inactive (Decoy)”.

Which Type does the source give for `COc1ccc(NS(=O)(=O)c2cccc(NS(=O)(=O)c3cccc([N+](=O)[O-])c3)c2)cc1` [Decoy709] here?
The Type was “Inactive (Decoy)”.

Which Type does the source give for `NCCCC[C@H](NC(=O)[C@@H](CC(=O)O)NC(=O)[C@@H](CC(=O)O)NC(=O)[C@@H](CC(=O)O)NC(=O)[C@@H](CC(=O)O)NC(=O)CN)C(=O)Nc1ccc2ccccc2c1` [Decoy438] (H-G[dD][dD][dD][dD]K-βNA) here?
Its Type is “Inactive (Decoy)”.

Same assay, conditions: sheet 6QHD_actives_decoys; retrospective screening set for STAT3 SH2 domain (PDB 6QHD); decoys generated with DUD-E and presumed inactive, not tested; ref DUD-E; cited from earlier work

Which Type does the source give for `CCN(CC)S(=O)(=O)c1cc(NC(=O)CSc2nnc(C(F)(F)F)n2N)ccc1C` [Decoy478] here?
The Type was “Inactive (Decoy)”.

Which Type does the source give for `CNc1ncnc2c1ncn2[C@H]1C[C@H](O)[C@@H](COC(c2ccccc2)(c2ccc(OC)cc2)c2ccc(OC)cc2)O1` [Decoy334] here?
The Type was “Inactive (Decoy)”.

For `COC(=O)[C@@H]1O[C@H](OC/C(=N/NC(N)=O)[C@H]2CC[C@@H]3[C@@H]4CC[C@@H]5C[C@H](OC(C)=O)CC[C@@]5(C)[C@H]4[C@H](O)C[C@@]23C)[C@@H](OC(C)=O)[C@H](OC(C)=O)[C@H]1OC(C)=O` [Decoy498], which Type is on record?
Its Type is “Inactive (Decoy)”.

With `COc1ccc(NC(=O)C2=C(C)NC(SCC(=O)Nc3cccc(OC)c3)=C(C#N)[C@@H]2c2ccco2)cc1` [Decoy357] as the compound, how does the Type read?
The Type was “Inactive (Decoy)”.

With `Cc1ccc(S(=O)(=O)CNC(=O)[C@@H](c2ccc3c(c2)OCO3)N(C)C(=O)c2cccc(O)c2O)cc1` [Decoy614] as the compound, how does the Type read?
The Type was “Inactive (Decoy)”.

Which Type does the source give for `Cc1ccc(S(=O)(=O)CNC(=O)[C@H](c2ccc([N+](=O)[O-])cc2)N(Cc2ccco2)C(=O)CO)cc1` [Decoy577] here?
Its Type is “Inactive (Decoy)”.

For `CC(=O)N[C@@H](C=O)C[C@@H](O[C@@H]1O[C@H](COC(C)=O)[C@H](OC(C)=O)[C@H](OC(C)=O)[C@H]1OC(C)=O)[C@H](O)[C@H](O)CO` [Decoy561], which Type is on record?
The Type was “Inactive (Decoy)”.

For `NS(=O)(=O)c1ccc(CCNC(=O)CCCCCn2c(=S)[nH]c3ccc(N4CCOCC4)cc3c2=O)cc1` [Decoy490], which Type is on record?
The Type was “Inactive (Decoy)”.

Which Type does the source give for `CCN(CC)S(=O)(=O)c1cccc(-c2nnc(SCC(=O)Nc3cc(C)cc(C)c3)n2N)c1` [Decoy726] here?
Its Type is “Inactive (Decoy)”.

For `CC(=O)O[C@H]1[C@@H](O)[C@H](CO)O[C@H](O[C@@H](/C=N\C23CC4CC(CC(C4)C2)C3)[C@@H](CO)O[C@H](O)/C=N/C23CC4CC(CC(C4)C2)C3)[C@@H]1O` [Decoy407], which Type is on record?
The Type was “Inactive (Decoy)”.

Which Type does the source give for `CCCCOc1ccc([C@@H]2C(C(=O)c3nc4c(C)cccn4c3C)=C(O)C(=O)N2CCN(C)C)cc1OCC` [Decoy578] here?
Its Type is “Inactive (Decoy)”.

Which Type does the source give for `O=C(Nc1ccc2c(O)c(/N=N/c3ccccc3)c(S(=O)(=O)O)cc2c1)Nc1ccc2c(O)c(/N=N/c3ccccc3)c(S(=O)(=O)O)cc2c1` [Decoy486] here?
Its Type is “Inactive (Decoy)”.

For `COc1cc(NC(=S)/N=C(\NCCc2c[nH]cn2)Nc2nc(C)cc(C)n2)c(OC)cc1Cl` [Decoy651], which Type is on record?
The Type was “Inactive (Decoy)”.

With `CC[C@@H]1OC(=O)[C@@H](C)[C@@H](O[C@@H]2C[C@@](C)(OC)[C@H](O)[C@H](C)O2)[C@@H](C)[C@@H](O[C@H]2O[C@@H](C)C[C@@H](N(C)C)[C@H]2O)[C@](C)(O)C[C@@H](C)/C(=N\OCOCCOC)[C@@H](C)[C@@H](O)[C@]1(C)O` [Decoy579] as the compound, how does the Type read?
Its Type is “Inactive (Decoy)”.

For `COC(=O)c1ccc2c(=O)n(CCc3ccc(S(N)(=O)=O)cc3)c(SCC(=O)Nc3ccc(C)cc3)nc2c1` [Decoy496], which Type is on record?
Its Type is “Inactive (Decoy)”.

With `CN(C)S(=O)(=O)c1cccc(C(=O)NNC(=O)c2cn(-c3ccccc3)nc2-c2cccnc2)c1` [Decoy350] as the compound, how does the Type read?
The Type was “Inactive (Decoy)”.

For `CC(=O)N[C@H]1[C@H]([C@H](O)[C@H](O)CO)O[C@](O[C@H]2[C@@H](O)[C@@H](CO)O[C@@H](O[C@H]3[C@H](O)[C@@H](O)[C@H](NC(C)=O)O[C@@H]3CO)[C@@H]2O)(C(=O)O)C[C@@H]1O` [Decoy607], which Type is on record?
The Type was “Inactive (Decoy)”.

With `Cc1cc(C)n(CCCNC(=O)c2cc(=O)[nH]c3ccc(S(=O)(=O)N4CCOCC4)cc23)n1` [Decoy597] as the compound, how does the Type read?
Its Type is “Inactive (Decoy)”.

With `CCN(CC)c1ccc(C(=O)OCC(=O)Nc2cccc(S(=O)(=O)/N=C3\CCCCCN3)c2)cc1` [Decoy504] as the compound, how does the Type read?
Its Type is “Inactive (Decoy)”.

With `Nc1ccc2cc(S(=O)(=O)O)cc(O)c2c1/N=N/c1ccccc1S(=O)(=O)NCC1CCCCC1` [Decoy501] as the compound, how does the Type read?
Its Type is “Inactive (Decoy)”.

Which Type does the source give for `COc1ccc(Cl)cc1N/C(N)=N\c1nc(CSc2nnnn2-c2ccccc2)cc(=O)[nH]1` [Decoy678] here?
Its Type is “Inactive (Decoy)”.

With `CCOc1ccc(-n2c(CNC(=O)c3ccc(S(=O)(=O)N(C)C)cc3)nnc2SCC(=O)Nc2cccc(C)c2)cc1` [Decoy520] as the compound, how does the Type read?
The Type was “Inactive (Decoy)”.

With `CC[C@H](C)[C@@H](NC(=O)CNC(=O)CCc1c(C)c2cc3c(C)coc3c(C)c2oc1=O)C(=O)O` [Decoy650] as the compound, how does the Type read?
The Type was “Inactive (Decoy)”.

Which Type does the source give for `O=C(CN(c1cccc([N+](=O)[O-])c1)S(=O)(=O)c1ccccc1)Nc1ccccc1C(=O)NCc1ccco1` [Decoy365] here?
Its Type is “Inactive (Decoy)”.

For `NCCCCCC(=O)OC[C@@H]1O[C@@H](Oc2ccc(-c3coc4cc(O)cc(O)c4c3=O)cc2)[C@@H](O)[C@H](O)[C@@H]1O` [Decoy461], which Type is on record?
The Type was “Inactive (Decoy)”.

Which Type does the source give for `COCCN(C(=O)COc1cc(Cl)c(Cl)cc1Cl)c1c(N)n(CC(C)C)c(=O)[nH]c1=O` [Decoy712] here?
Its Type is “Inactive (Decoy)”.

Which Type does the source give for `CCCc1nc(C(C)(C)O[C@@H]2O[C@H](C(=O)O)[C@@H](O)[C@H](O)[C@H]2O)c(C(=O)O)n1Cc1ccc(-c2ccccc2-c2nnn[nH]2)cc1` [Decoy521] here?
The Type was “Inactive (Decoy)”.

For `CCOC(=O)Cc1csc(NC(=O)CSc2nnc(Cc3csc(N)n3)n2C)n1` [Decoy522], which Type is on record?
Its Type is “Inactive (Decoy)”.

Which Type does the source give for `CCOC(=O)c1cc(C(=O)OCC)c(=O)[nH]c1NN=C1CCN(c2ncc(C(F)(F)F)cc2Cl)CC1` [Decoy499] here?
The Type was “Inactive (Decoy)”.

Which Type does the source give for `CCOC(=O)C1=C(C)NC(=O)N[C@H]1c1cc(OC)c(OCC(=O)Nc2ccc(C)cc2)cc1Br` [Decoy705] here?
Its Type is “Inactive (Decoy)”.

Which Type does the source give for `Cn1c(CNc2ccc(C(=N)N)cc2)nc2cc(C(=O)N(CCC(=O)O[C@@H]3O[C@H](C(=O)O)[C@@H](O)[C@H](O)[C@H]3O)c3ccccn3)ccc21` [Decoy516] here?
Its Type is “Inactive (Decoy)”.

For `O=C(CSc1n[nH]c(N/N=C/c2cc(Cl)ccc2O)n1)NNC(=O)c1ccc(Cl)cc1` [Decoy591], which Type is on record?
Its Type is “Inactive (Decoy)”.
